Measurements published in paper PMC6116703, “Ethenesulfonyl fluoride derivatives as telomerase inhibitors: structure-based design, SAR, and anticancer evaluation in vitro” (Journal of Enzyme Inhibition and Medicinal Chemistry, 2018).
Where two headings read alike, the source gives them in different places.

Experiments:
[1] = test system: human gastric cancer cells MGC-803; assay: Cell proliferation (MTT) assay, MGC-803; format: cell-based; conditions: antiproliferative, MTT, 48 h exposure; read-out: IC50 MGC-803
Method: (§1) The antiproliferative activities evaluation was conducted by using a modified procedure as described in the literature. Briefly, target tumour cells were grown to log phase in RPMI 1640 medium supplemented with 10% fetal bovine serum. After diluting to 3 × 10^4 cells mL^−1 with the complete medium, 100 µL of the obtained cell suspension was added to each well of 96-well culture plates. The subsequent incubation was performed at 37 °C, 5% CO2 atmosphere for 24 h before subjecting to antiproliferation assessment. The tested samples at pre-set concentrations were added to six wells with Doxorubicin (AMD) co-assayed as a positive reference. After 48 h of exposure period, 25 µL of PBS containing 2.5 mg·mL^−1 of MTT was added to each well. After 4 h, the medium was replaced by 150 µL DMSO to dissolve the purple formazan crystals produced. The absorbance at 570 nm of each well was measured using an ELISA plate reader. The data represented the mean of three experiments in triplicate and were expressed as means ± SD using Student’s test.

human melanoma cell A375 = assay: Cell proliferation (MTT) assay, A375; format: cell-based
Method: as §1

[2] = test system: human breast cancer cell MDA-MB-231; assay: Cell proliferation (MTT) assay, MDA-MB-231; format: cell-based
Method: as §1

[3] = test system: human hepatoma cell SMMC-7721; assay: Cell proliferation (MTT) assay, SMMC-7721; format: cell-based; conditions: read-out: IC50 SMMC-7721
Method: as §1

telomerase = target: T1, telomerase (Homo sapiens, UniProt O14746); assay: Telomerase activity TRAP-PCR-ELISA assay (A375 cell extract); format: biochemical; conditions: TRAP-PCR-ELISA, A375 cells, 24 h treatment
T1 construct: endogenous in cells; host or cells: A375 human melanoma cells
Method: Thirty-six compounds were tested in a search for inhibitors of telomerase activity using the TRAP-PCR-ELISA assay. In detail, the A375 cells were firstly maintained in RPMI 1640 buffer (Hyclone, Miami, FL), supplemented with 10% fetal bovineserum (GIBCO, New York, NY), streptomycin (0.1 mg/mL) and penicillin (100 IU/mL) at 37 °C in a humidified atmosphere containing 5% CO2. After trypsinisation, 5 × 10^4 cultured cells in logarithmic growth were seeded into T25 flasks (Corning, New York, NY) and cultured to allow to adherence. […] After 24 h treatment, the cells were harvested by cell scraper orderly followed by washing once with PBS. The cells were lysed in 150 µL RIPA cell lysis buffer (Santa Cruz, Santa Cruz, CA), and incubated on ice for 30 min. The cellular supernatants were obtained via centrifugation at 12,000g for 20 min at 4 °C and stored at –80 °C. The TRAP-PCR-ELISA assay was performed using a telomerase detection kit (Roche, Basel, Switzerland) according to the manufacturer’s protocol. In brief, 2 µL of cell extracts were mixed with 48 µL TRAP reaction mixtures. TRAP primers and Taq polymerase are incubated at 25 °C for 30 min. PCR was then initiated at 94 °C, 120 s for predenaturation and performed using 35 cycles each consisting of 94 °C for 30 s, 50 °C for 30 s, 72 °C for 90 s. Then 20 µL of PCR products were hybridised to a digoxigenin (DIG)-labelled telomeric repeat specific detection probe. And the PCR products were immobilised via the biotin-labelled primer to a streptavidin-coated microtiter plate subsequently. The immobilised DNA fragments were detected with a peroxidase-conjugated anti-DIG antibody and visualised following the addition of the stop regent. The microtitre plate was assessed on TECAN Infinite M200 microplate reader (Mannedorf, Switzerland) at a wavelength of 490 nm, and the final value were presented as mean ± SD[23].

[4] = antiproliferative, MTT, 48 h exposure, read-out: IC50 A375
[5] = antiproliferative, MTT, 48 h exposure, read-out: IC50 MDA-MB-231
[6] = antiproliferative, MTT, 48 h exposure
[7] = IC50 inhibitory activity against telomerase
[8] = Homo sapiens, A-375, 48 h, read-out: IC50 A375, antiproliferative, MTT, 48 h exposure
[9] = Homo sapiens, MDA-MB-231, 48 h, read-out: IC50 MDA-MB-231, antiproliferative, MTT, 48 h exposure

T1 sequence (O14746 whole entry): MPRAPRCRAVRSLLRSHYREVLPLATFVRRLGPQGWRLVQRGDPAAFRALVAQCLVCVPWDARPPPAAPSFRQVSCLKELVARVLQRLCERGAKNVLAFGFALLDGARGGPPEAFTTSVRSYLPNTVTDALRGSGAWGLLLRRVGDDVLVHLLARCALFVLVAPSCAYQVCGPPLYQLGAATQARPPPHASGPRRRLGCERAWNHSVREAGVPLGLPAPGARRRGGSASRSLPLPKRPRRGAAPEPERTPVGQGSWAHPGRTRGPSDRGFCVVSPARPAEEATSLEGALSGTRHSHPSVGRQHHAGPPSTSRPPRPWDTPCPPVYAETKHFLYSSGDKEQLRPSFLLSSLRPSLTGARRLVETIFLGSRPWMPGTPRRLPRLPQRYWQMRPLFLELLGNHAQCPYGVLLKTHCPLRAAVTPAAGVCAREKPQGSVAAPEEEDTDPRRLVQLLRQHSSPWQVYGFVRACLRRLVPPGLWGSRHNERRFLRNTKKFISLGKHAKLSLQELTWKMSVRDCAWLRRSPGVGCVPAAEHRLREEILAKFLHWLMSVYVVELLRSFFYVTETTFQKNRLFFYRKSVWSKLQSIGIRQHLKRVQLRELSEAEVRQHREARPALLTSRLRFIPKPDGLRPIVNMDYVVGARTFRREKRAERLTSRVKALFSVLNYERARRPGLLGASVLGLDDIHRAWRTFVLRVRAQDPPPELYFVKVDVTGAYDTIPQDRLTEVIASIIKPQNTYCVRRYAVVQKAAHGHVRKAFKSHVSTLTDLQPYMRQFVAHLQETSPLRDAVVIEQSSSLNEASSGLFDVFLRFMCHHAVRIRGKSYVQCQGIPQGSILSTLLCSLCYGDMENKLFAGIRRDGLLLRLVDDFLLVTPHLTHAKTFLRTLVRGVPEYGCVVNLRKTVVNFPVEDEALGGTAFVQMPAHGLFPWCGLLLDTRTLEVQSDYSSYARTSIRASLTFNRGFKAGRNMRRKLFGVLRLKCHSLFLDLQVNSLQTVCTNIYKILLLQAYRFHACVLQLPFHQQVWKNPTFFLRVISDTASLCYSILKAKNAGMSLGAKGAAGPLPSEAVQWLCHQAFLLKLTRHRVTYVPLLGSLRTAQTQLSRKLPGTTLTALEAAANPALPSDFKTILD

| SMILES | IC50 (human melanoma cell A375; [4]) [µM] | IC50 [2, 5] [µM] | IC50 [3, 6] [µM] | further results |
| --- | --- | --- | --- | --- |
| O=S(=O)(F)/C=C/c1cccc(I)c1 [Compound 72] | 13 ± 0.77 | 22.6 ± 1 | 16.1 ± 0.91 | IC50 [1]: 44.9 ± 1.13 µM |
| O=S(=O)(F)/C=C/C=C/c1ccc(Br)cc1 [Compound 51] | 42 ± 1.6 | 20.9 ± 1.09 | 31.2 ± 1.33 | – |
| Cc1cc(/C=C/S(=O)(=O)F)ccc1Br [Compound 29] | 14.3 ± 0.91 | 16.9 ± 0.87 | – | – |
| O=S(=O)(F)/C=C/c1ccc(C(F)(F)F)nc1 [Compound 79] | 23 ± 1.75 | – | – | – |
| O=S(=O)(F)/C=C/c1cc2ccccc2s1 [Compound 42] | – | – | – | IC50 inhibitory activity against telomerase (telomerase): no |
| CCOC(=O)c1cccc(/C=C/S(=O)(=O)F)c1 [Compound 77] | 13.7 ± 1.29 | 19.4 ± 0.79 | 23.6 ± 1.45 | IC50 [1]: 51.8 ± 0.87 µM |
| O=S(=O)(F)/C=C/c1ccc(I)cc1 [Compound 63] | – | – | – | IC50 (telomerase; [7]): 45.3 ± 1.87 µM |
| Cc1ccc(S(=O)(=O)n2ccc3cc(/C=C/S(=O)(=O)F)ccc32)cc1 [Compound 45] | – | – | – | IC50 (human melanoma cell A375; [8]): 8.61 ± 0.28 µM; IC50 ([3]; Homo sapiens, SMMC-7721, 48 h): 15.6 ± 0.78 µM |
| O=S(=O)(F)/C=C/C=C/c1ccc2ccccc2c1 [Compound 55] | – | – | – | IC50 (human melanoma cell A375; [8]): 5.87 ± 0.2 µM; IC50 [2, 9]: 14.3 ± 1.07 µM; IC50 ([3]; Homo sapiens, SMMC-7721, 48 h): 34.1 ± 1.45 µM; IC50 (telomerase; [7]): 47.2 ± 1.52 µM |
| O=S(=O)(F)/C=C/c1cnn(-c2ccccc2)c1 [Compound 47] | – | – | – | IC50 (human melanoma cell A375; [8]): 9.04 ± 0.29 µM; IC50 [2, 9]: 10.2 ± 0.44 µM; IC50 ([3]; Homo sapiens, SMMC-7721, 48 h): 21.2 ± 0.49 µM; IC50 (telomerase; [7]): 2.13 ± 0.6 µM |
| O=C1C=C(/C=C/S(=O)(=O)F)CCC1 [Compound 58] | – | – | – | IC50 (telomerase; read-out: IC50 inhibitory activity against telomerase): 39.9 ± 1.29 µM |
| Cc1cc(C)cc(/C=C/S(=O)(=O)F)c1 [Compound 28] | 10.2 ± 0.75 | 20.6 ± 2.11 | 16.7 ± 0.65 | – |
| O=Cc1cccc(/C=C/S(=O)(=O)F)c1 [Compound 60] | 10.7 ± 0.8 | – | – | – |
| O=S(=O)(F)/C=C/c1ccsc1 [Compound 41] | 14.6 ± 1.2 | 10.6 ± 0.46 | 28.8 ± 0.75 | – |
| O=S(=O)(F)/C=C/c1cc2ccccc2o1 [Compound 39] | – | – | – | IC50 (telomerase; [7]): 48.8 ± 2.22 µM |
| O=S(=O)(F)/C=C/C=C/c1ccccc1C(F)(F)F [Compound 54] | 17.5 ± 1.52 | 28.5 ± 1.16 | 19 ± 0.71 | – |
| O=S(=O)(F)/C=C/c1cc(F)nc(F)c1 [Compound 59] | – | – | – | IC50 (human melanoma cell A375; [8]): 58 ± 1.71 µM; IC50 (telomerase; [7]): 44.2 ± 2.26 µM |
| O=S(=O)(F)/C=C/C=C/c1ccccc1Cl [Compound 53] | 17.5 ± 0.98 | 28.5 ± 1.14 | 57.3 ± 2.01 | – |
| O=S(=O)(F)/C=C/C=C/c1ccc(C(F)(F)F)cc1 [Compound 52] | 13.3 ± 0.87 | 15.3 ± 0.82 | 24.3 ± 1.19 | – |
| CC(C)S(=O)(=O)c1ccc(/C=C/S(=O)(=O)F)cc1 [Compound 82] | – | – | – | IC50 (human melanoma cell A375; [8]): 24.2 ± 0.6 µM; IC50 [2, 9]: 28.7 ± 1.21 µM; IC50 ([3]; Homo sapiens, SMMC-7721, 48 h): 8.95 ± 0.27 µM; IC50 (telomerase; [7]): 37.9 ± 2.19 µM |
| O=S(=O)(F)/C=C/c1ccc(C(F)(F)F)cc1 [Compound 10] | 5.43 ± 0.4 | 29.8 ± 2.31 | 40.1 ± 1.66 | IC50 [1]: 24.9 ± 0.82 µM |
| O=[N+]([O-])c1ccc(/C=C/S(=O)(=O)F)cc1 [Compound 12] | – | – | – | IC50 (human melanoma cell A375; [8]): ~3 µM; IC50 (human melanoma cell A375; read-out: IC50 A375, antiproliferative, MTT, 48 h exposure): 3.58 ± 0.11 µM; IC50 [2, 9]: 4.25 ± 0.32 µM; IC50 (telomerase; [7]): 2.77 ± 0.58 µM |
| O=S(=O)(F)/C=C/c1ccccc1F [Compound 73] | 11.2 ± 0.81 | 25.6 ± 0.97 | – | IC50 [1]: 57.7 ± 1.44 µM |
| Cc1ccc(/C=C/S(=O)(=O)F)cc1 [Compound 65] | 32.7 ± 1.22 | 30.5 ± 1.29 | – | – |
| COc1ccccc1/C=C/S(=O)(=O)F [Compound 23] | 25.3 ± 1.33 | 33.8 ± 2.89 | – | – |
| O=S(=O)(F)/C=C/c1ccc(Oc2ccccc2)cc1 [Compound 3] | 27 ± 0.82 | 31.8 ± 1.44 | – | – |
| O=C(O)c1ccc(/C=C/S(=O)(=O)F)cc1 [Compound 62] | – | – | – | IC50 (human melanoma cell A375; [8]): 45.1 ± 1.4 µM; IC50 [2, 9]: 86.2 ± 2.44 µM; IC50 (telomerase; [7]): 39.9 ± 1.4 µM |
